Results reported in patent US20190031599A1, “INDANE DERIVATIVES AS MGLUR7 MODULATORS” (Takeda Pharmaceutical Company Limited, priority 2016, published 2019).

Target: T1, human mGluR7 (Homo sapiens, UniProt Q14831)
T1 construct: expressed in transfected cells
Assay: mGluR7 assay: CRE-directed luciferase reporter gene assay, reduction of forskolin stimulated cAMP production
Type: cell-based
Settings: stable CHO cell line expressing the CRE-luc reporter and human mGluR7 genes; decrease of forskolin stimulated luminescence; 10-point concentration-response, duplicate wells
Method: The ability of the test compounds to activate mGluR7 was determined by their ability to reduce forskolin stimulated cAMP production. Compounds were assessed in a CRE-directed luciferase reporter gene assay, using a stable CHO cell line expressing the CRE-luc reporter and human mGluR7 genes. In this cell line, production of cAMP stimulated the transcription of the luciferase gene and luciferase activity was then measured in a luminescent enzyme assay (Steady Glo assay; Promega E2550). Activation of mGluR7 decreased the forskolin stimulated luminescence signal.
The day prior to the assay, compounds were serially diluted in DMSO (100× final assay concentration (FAC)), in 384-well plates which were then stored in the dark at room temperature (RT) until use. Cells were seeded at 12.5 k/well in white, clear bottom 384-well plates (Corning 3707) and left for one hour at RT followed by an overnight incubation (37° C.). The following day, the DMSO compound plate was diluted 1:20 (5× FAC) in Opti-MEM I (Life Technologies 11058021). The growth media was removed from the cell plate and replaced with 15 μl Opti-MEM I, followed by a 5 μl addition from the 5× compound plate and a fifteen minute incubation (37° C.). Forskolin (Sigma F3917) was then added to the wells (5 μl of 2.5 μM) and the plate was incubated for five hours (37° C.). During this incubation, the Steady Glo Substrate reagent was warmed to 37° C. Aliquots (11 ml; stored at −20° C.) of this reagent were prepared by dissolving the contents of 1 vial of lyophilised substrate in 100 ml Steady-Glo buffer. A 25 μl addition of the substrate was made to all wells and the plate was incubated for thirty minutes at RT, on a plate shaker (300 rpm; in the dark). Luminescence was then measured using the EnVision Multilabel Reader (Perkin Elmer).
Compound activity was examined using a 10-point, half log concentration-response range and each concentration was tested in duplicate wells. Luminescence values were normalised to ‘maximum’ (forskolin alone) and ‘minimum’ (forskolin in the presence of tool mGluR7 agonist) controls.

T1 sequence (Q14831 35-915): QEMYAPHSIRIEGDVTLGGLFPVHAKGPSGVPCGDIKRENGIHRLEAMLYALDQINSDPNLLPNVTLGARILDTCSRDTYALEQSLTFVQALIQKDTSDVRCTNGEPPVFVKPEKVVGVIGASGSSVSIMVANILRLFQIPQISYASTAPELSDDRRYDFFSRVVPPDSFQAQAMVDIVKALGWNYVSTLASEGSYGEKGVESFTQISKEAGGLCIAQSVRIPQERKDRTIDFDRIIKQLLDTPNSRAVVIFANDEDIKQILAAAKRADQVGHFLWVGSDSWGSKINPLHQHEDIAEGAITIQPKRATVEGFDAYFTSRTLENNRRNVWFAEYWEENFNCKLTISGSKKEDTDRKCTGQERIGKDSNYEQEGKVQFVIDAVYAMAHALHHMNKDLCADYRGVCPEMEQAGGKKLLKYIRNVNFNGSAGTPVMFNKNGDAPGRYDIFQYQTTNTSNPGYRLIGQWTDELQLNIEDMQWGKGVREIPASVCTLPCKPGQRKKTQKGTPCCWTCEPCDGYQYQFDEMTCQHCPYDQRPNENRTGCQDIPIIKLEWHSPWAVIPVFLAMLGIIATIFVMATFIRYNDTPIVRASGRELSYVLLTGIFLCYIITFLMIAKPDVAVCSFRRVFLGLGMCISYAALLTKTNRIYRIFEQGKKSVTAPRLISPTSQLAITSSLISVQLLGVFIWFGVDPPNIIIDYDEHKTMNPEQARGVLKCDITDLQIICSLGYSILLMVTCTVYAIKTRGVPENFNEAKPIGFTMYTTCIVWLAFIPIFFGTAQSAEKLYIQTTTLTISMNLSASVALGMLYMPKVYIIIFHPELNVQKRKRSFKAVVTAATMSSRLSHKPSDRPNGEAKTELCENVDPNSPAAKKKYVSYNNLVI

EC50 [µM] | Structure (SMILES)
0.704 | C[C@H](C(=O)NC1Cc2ccccc2C1O)c1ccc(F)cc1 (single isomer, unassigned) [Example 62]
0.767 | C[C@H](C(=O)NC1Cc2ccccc2C1O)c1ccc(F)cc1 (single isomer, unassigned) [Example 63]
0.047 | CC(C(=O)N[C@H]1Cc2ccccc2[C@@H]1N)c1ccc(Cl)cc1 (single isomer, unassigned) [Example 69]
0.956 | CC(C(=O)N[C@H]1Cc2ccccc2[C@@H]1N)c1ccc(Cl)cc1 (single isomer, unassigned) [Example 70]
0.045 | C[C@H](C(=O)NC1Cc2ccccc2C1N1CCOCC1)c1ccc(F)cc1 (single isomer, unassigned) [Example 73]
0.288 | CC(F)(C(=O)N[C@H]1Cc2ccccc2[C@@H]1N)c1ccc(F)cc1 (single isomer, unassigned) [Example 76]
2.63 | CC(F)(C(=O)N[C@H]1Cc2ccccc2[C@@H]1N)c1ccc(F)cc1 (single isomer, unassigned) [Example 77]
0.008 | C[C@H](C(=O)NC1Cc2ccccc2C1NCC(F)F)c1ccc(F)cc1 (single isomer, unassigned) [Example 84]
0.054 | N[C@H]1c2ccccc2C[C@@H]1NC(=O)C(c1ccc(F)cc1)C1CC1 (single isomer, unassigned) [Example 96]
0.807 | N[C@H]1c2ccccc2C[C@@H]1NC(=O)C(c1ccc(F)cc1)C1CC1 (single isomer, unassigned) [Example 97]
0.006 | COC1c2ccccc2CC1NC(=O)[C@@H](NC(=O)C1CC1)c1ccc(F)cc1 (single isomer, unassigned) [Example 101]
0.006 | COC1c2ccccc2CC1NC(=O)[C@@H](NC(=O)C1CC1)c1ccc(F)cc1 (single isomer, unassigned) [Example 102]
0.081 | N[C@H]1c2ccccc2C[C@@H]1NC(=O)C(c1ccc(F)cc1F)N1CC(F)C1 (single isomer, unassigned) [Example 106]
1.22 | N[C@H]1c2ccccc2C[C@@H]1NC(=O)C(c1ccc(F)cc1F)N1CC(F)C1 (single isomer, unassigned) [Example 107]
0.573 | N[C@H]1c2ccccc2C[C@@H]1NC(=O)C(c1ccc(F)cc1F)n1ncccc1=O (single isomer, unassigned) [Example 109]
1.15 | N[C@H]1c2ccccc2C[C@@H]1NC(=O)C(c1ccc(F)cc1F)n1ncccc1=O (single isomer, unassigned) [Example 110]

EC50 [µM] | Structure (SMILES)
0.181 | N[C@H]1c2ccccc2C[C@@H]1NC(=O)C(c1ccc(F)cc1)N1CC(F)C1 (single isomer, unassigned) [Example 115]
0.241 | N[C@H]1c2ccccc2C[C@@H]1NC(=O)C(c1ccc(F)cc1)N1CC(F)C1 (single isomer, unassigned) [Example 116]
0.01 | N[C@H]1c2ccccc2C[C@@H]1NC(=O)C(c1ccc(F)cc1)N1CC(F)C1 (single isomer, unassigned) [Example 117]
2.87 | N[C@H]1c2ccccc2C[C@@H]1NC(=O)C(c1ccc(F)cc1)N1CC(F)C1 (single isomer, unassigned) [Example 118]
1.05 | COC1c2ccccc2CC1NC(=O)C(c1ccc(F)cc1F)n1ncccc1=O (single isomer, unassigned) [Example 124, 2-(2,4-difluorophenyl)-N-(trans)-(1-methoxy-2,3-dihydro-1H-inden-2-yl)-2-(6-oxo-1,6-dihydropyridazin-1-yl)acetamide]
1.07 | COC1c2ccccc2CC1NC(=O)C(c1ccc(F)cc1F)n1ncccc1=O (single isomer, unassigned) [Example 125, 2-(2,4-difluorophenyl)-N-(trans)-(1-methoxy-2,3-dihydro-1H-inden-2-yl)-2-(6-oxo-1,6-dihydropyridazin-1-yl)acetamide]
0.28 | COC1c2ccccc2CC1NC(=O)C(c1ccc(F)cc1F)n1ncccc1=O (single isomer, unassigned) [Example 126, 2-(2,4-difluorophenyl)-N-(trans)-(1-methoxy-2,3-dihydro-1H-inden-2-yl)-2-(6-oxo-1,6-dihydropyridazin-1-yl)acetamide]
0.082 | COC1c2ccccc2CC1NC(=O)C(c1ccc(F)cc1F)n1ncccc1=O (single isomer, unassigned) [Example 127, 2-(2,4-difluorophenyl)-N-(trans)-(1-methoxy-2,3-dihydro-1H-inden-2-yl)-2-(6-oxo-1,6-dihydropyridazin-1-yl)acetamide]
1.32 | COC1c2ccccc2CC1NC(=O)C(c1ccc(F)cc1)n1ncccc1=O (single isomer, unassigned) [Example 128, 2-(4-fluorophenyl)-N-(trans)-(1-methoxy-2,3-dihydro-1H-inden-2-yl)-2-(6-oxo-1,6-dihydropyridazin-1-yl)acetamide]
3.9 | COC1c2ccccc2CC1NC(=O)C(c1ccc(F)cc1)n1ncccc1=O (single isomer, unassigned) [Example 129, 2-(4-fluorophenyl)-N-(trans)-(1-methoxy-2,3-dihydro-1H-inden-2-yl)-2-(6-oxo-1,6-dihydropyridazin-1-yl)acetamide]
0.148 | COC1c2ccccc2CC1NC(=O)C(c1ccc(F)cc1)n1ncccc1=O (single isomer, unassigned) [Example 130, 2-(4-fluorophenyl)-N-(trans)-(1-methoxy-2,3-dihydro-1H-inden-2-yl)-2-(6-oxo-1,6-dihydropyridazin-1-yl)acetamide]
0.089 | COC1c2ccccc2CC1NC(=O)C(c1ccc(F)cc1)n1ncccc1=O (single isomer, unassigned) [Example 131, 2-(4-fluorophenyl)-N-(trans)-(1-methoxy-2,3-dihydro-1H-inden-2-yl)-2-(6-oxo-1,6-dihydropyridazin-1-yl)acetamide]
1.98 | COC1c2ccccc2CC1NC(=O)C(c1ccc(F)cc1F)N1CC(F)C1 (single isomer, unassigned) [Example 136, 2-(2,4-difluorophenyl)-2-(3-fluoroazetidin-1-yl)-N-(trans)-(1-methoxy-2,3-dihydro-1H-inden-2-yl)acetamide]
0.741 | COC1c2ccccc2CC1NC(=O)C(c1ccc(F)cc1F)N1CC(F)C1 (single isomer, unassigned) [Example 137, 2-(2,4-difluorophenyl)-2-(3-fluoroazetidin-1-yl)-N-(trans)-(1-methoxy-2,3-dihydro-1H-inden-2-yl)acetamide]
0.014 | COC1c2ccccc2CC1NC(=O)C(c1ccc(F)cc1F)N1CC(F)C1 (single isomer, unassigned) [Example 138, 2-(2,4-difluorophenyl)-2-(3-fluoroazetidin-1-yl)-N-(trans)-(1-methoxy-2,3-dihydro-1H-inden-2-yl)acetamide]
0.061 | COC1c2ccccc2CC1NC(=O)C(c1ccc(F)cc1F)N1CC(F)C1 (single isomer, unassigned) [Example 139, 2-(2,4-difluorophenyl)-2-(3-fluoroazetidin-1-yl)-N-(trans)-(1-methoxy-2,3-dihydro-1H-inden-2-yl)acetamide]

Structure (SMILES) | EC50 [µM]
C[C@H](C(=O)NC1Cc2ccccc2C1N1CCCC1)c1ccc(F)cc1 (single isomer, unassigned) [Example 67] | 0.016
C[C@H](C(=O)NC1Cc2ccccc2C1N1CCCC1)c1ccc(F)cc1 (single isomer, unassigned) [Example 68] | 0.028
